Test results as given in PubChem BioAssay (NCI).
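96-well plates; 48 h exposure; 5 concentrations. Endpoints by linear interpolation between flanking doses. Not reached: highest tested concentration assigned. TGI is the concentration that stops growth completely.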

Columns and labels:
Assay in all cases: inhibition of tumour cell growth, NCI panel, 48 h
[1] = system: MALME-3M melanoma
[2] = system: CCRF-CEM leukemia
[3] = system: SK-MEL-5 melanoma
[4] = system: KM20L2 colon
[5] = system: LXFL 529 NSCLC
[6] = system: HOP-92 NSCLC
[7] = system: DMS 114 small cell lung
[8] = system: KM12 colon
[9] = system: OVCAR-5 ovarian
[10] = system: SR leukemia
[11] = system: RPMI-8226 leukemia
[12] = system: HCC-2998 colon
[13] = system: SNB-78 CNS
[14] = system: OVCAR-4 ovarian
[15] = system: NCI-H460 lung
[16] = system: NCI-H522 lung
[17] = system: OVCAR-8 ovarian
[18] = system: UO-31 renal
[19] = system: SF-295 CNS
[20] = system: NCI-H23 lung
[21] = system: M19-MEL melanoma
[22] = system: HCT-116 colon
[23] = system: RXF-631 renal
[24] = system: UACC-257 melanoma
[25] = system: RXF 393 renal
[26] = system: SK-MEL-28 melanoma
[27] = system: IGROV1 ovarian
[28] = system: HOP-62 NSCLC
[29] = system: SW-620 colon
[30] = system: SK-OV-3 ovarian
[31] = system: HCT-15 colon
[32] = system: SNB-75 CNS
[33] = system: DMS 273 small cell lung
[34] = system: UACC-62 melanoma
[35] = system: ACHN renal
[36] = system: SF-268 CNS
[37] = system: SK-MEL-2 melanoma
[38] = system: M14 melanoma
[39] = system: K-562 leukemia
[40] = system: SF-539 CNS
[41] = system: 786-0 renal
[42] = system: A549 NSCLC
[43] = system: SNB-19 CNS
[44] = system: COLO 205 colon
[45] = system: U251 CNS
[46] = system: HOP-18 NSCLC
[47] = system: HL-60(TB) leukemia
[48] = system: DLD-1 colon
[49] = system: MOLT-4 leukemia
[50] = system: SN12C renal
[51] = system: HT29 colon
[52] = system: NCI-H226 lung
[53] = system: EKVX NSCLC
[54] = system: A498 renal
[55] = system: TK-10 renal
[56] = system: XF 498 CNS
[57] = system: LOX IMVI melanoma
[58] = system: OVCAR-3 ovarian
[59] = system: CAKI-1 renal

N/N=c1\c2ccccc2c2cc3c(cc12)/c(=N/N)c1ccccc13 gave a TGI [1] greater than 100 µM, a TGI [2] greater than 100 µM and a TGI [3] greater than 100 µM. The TGI [4] was greater than 100 µM, the TGI [5] was greater than 100 µM and the TGI [6] was greater than 100 µM. It also gave a TGI [7] greater than 100 µM, a TGI [8] greater than 100 µM and a TGI [9] greater than 100 µM. The TGI [10] was greater than 100 µM, the TGI [11] was greater than 100 µM and the TGI [12] was greater than 100 µM. The TGI [13] was greater than 100 µM, the TGI [14] was greater than 100 µM and the TGI [15] was greater than 100 µM. For the same molecule, the TGI [16] was greater than 100 µM, the TGI [17] was greater than 100 µM and the TGI [18] was greater than 100 µM. For the same molecule, the TGI [19] was greater than 100 µM, the TGI [20] was greater than 100 µM and the TGI [21] was greater than 100 µM. It also gave a TGI [22] greater than 100 µM, a TGI [23] greater than 100 µM and a TGI [24] greater than 100 µM. It also gave a TGI [25] greater than 100 µM, a TGI [26] greater than 100 µM and a TGI [27] greater than 100 µM. For the same molecule, the TGI [28] was greater than 100 µM, the TGI [29] was greater than 100 µM and the TGI [30] was greater than 100 µM. For the same molecule, the TGI [31] was greater than 100 µM, the TGI [32] was greater than 100 µM and the TGI [33] was greater than 100 µM. The TGI [34] was greater than 100 µM, the TGI [35] was greater than 100 µM and the TGI [36] was greater than 100 µM. It also gave a TGI [37] greater than 100 µM, a TGI [38] greater than 100 µM and a TGI [39] greater than 100 µM. The TGI [40] was greater than 100 µM, the TGI [41] was greater than 100 µM and the TGI [42] was greater than 100 µM. The TGI [43] was greater than 100 µM, the TGI [44] was greater than 100 µM and the TGI [45] was greater than 100 µM. The TGI [46] was greater than 100 µM, the TGI [47] was greater than 100 µM and the TGI [48] was greater than 100 µM. For the same molecule, the TGI [49] was greater than 100 µM, the TGI [50] was greater than 100 µM and the TGI [51] was greater than 100 µM. The TGI [52] was greater than 100 µM and the TGI [53] was greater than 100 µM.

CC(C)NC(=O)CCN(C(=O)O)S(=O)(=O)c1ccc(NC(=O)c2ccccc2)cc1 was tested, and the TGI [1] was greater than 100 µM, the TGI [2] was greater than 63.4 µM and the TGI [3] was greater than 100 µM. For the same molecule, the TGI [4] was greater than 100 µM, the TGI [5] was greater than 100 µM and the TGI [54] was greater than 100 µM. For the same molecule, the TGI [6] was greater than 100 µM, the TGI [7] was greater than 54.3 µM and the TGI [8] was greater than 100 µM. For the same molecule, the TGI [9] was greater than 100 µM, the TGI [10] was greater than 83 µM and the TGI [11] was greater than 71.5 µM. The TGI [55] was greater than 100 µM, the TGI [12] was greater than 100 µM and the TGI [13] was greater than 100 µM. It also gave a TGI [14] greater than 100 µM, a TGI [15] greater than 59.7 µM and a TGI [16] greater than 100 µM. The TGI [17] was greater than 94.7 µM, the TGI [18] was greater than 100 µM and the TGI [19] was greater than 100 µM. For the same molecule, the TGI [56] was greater than 100 µM, the TGI [20] was greater than 100 µM and the TGI [57] was greater than 61.7 µM. It also gave a TGI [21] greater than 89.2 µM, a TGI [22] greater than 54.1 µM and a TGI [23] greater than 100 µM. For the same molecule, the TGI [24] was greater than 79.3 µM, the TGI [25] was greater than 100 µM and the TGI [26] was greater than 100 µM. It also gave a TGI [27] greater than 100 µM, a TGI [28] greater than 100 µM and a TGI [29] greater than 52.4 µM. The TGI [30] was greater than 100 µM, the TGI [31] was greater than 59.8 µM and the TGI [32] was greater than 100 µM. For the same molecule, the TGI [33] was greater than 56.7 µM, the TGI [34] was greater than 82.7 µM and the TGI [35] was greater than 100 µM. It also gave a TGI [36] greater than 100 µM, a TGI [37] greater than 100 µM and a TGI [38] greater than 100 µM. For the same molecule, the TGI [39] was greater than 64.5 µM, the TGI [40] was 67.5 µM and the TGI [41] was greater than 100 µM. For the same molecule, the TGI [42] was greater than 71.2 µM, the TGI [43] was greater than 100 µM and the TGI [44] was greater than 58.5 µM. The TGI [58] was greater than 100 µM, the TGI [45] was 32.1 µM and the TGI [46] was greater than 100 µM. The TGI [47] was greater than 64 µM, the TGI [59] was greater than 100 µM and the TGI [48] was greater than 72.6 µM. It also gave a TGI [49] greater than 57.9 µM, a TGI [50] greater than 100 µM and a TGI [51] greater than 100 µM. For the same molecule, the TGI [52] was greater than 100 µM and the TGI [53] was greater than 100 µM.

For CC1(c2ccccc2)CC(c2cccc([N+](=O)[O-])c2)=NO1 (stereo unspecified), the TGI [1] was greater than 100 µM, the TGI [3] was greater than 100 µM and the TGI [5] was greater than 100 µM. It also gave a TGI [54] greater than 100 µM, a TGI [6] greater than 100 µM and a TGI [7] greater than 100 µM. It also gave a TGI [8] greater than 100 µM, a TGI [9] greater than 100 µM and a TGI [10] greater than 100 µM. It also gave a TGI [11] greater than 100 µM, a TGI [55] greater than 100 µM and a TGI [12] greater than 100 µM. It also gave a TGI [13] greater than 100 µM, a TGI [14] greater than 100 µM and a TGI [15] greater than 100 µM. The TGI [16] was greater than 100 µM, the TGI [17] was greater than 100 µM and the TGI [18] was greater than 100 µM. For the same molecule, the TGI [19] was greater than 100 µM, the TGI [20] was greater than 100 µM and the TGI [21] was greater than 100 µM. For the same molecule, the TGI [22] was greater than 100 µM, the TGI [23] was greater than 100 µM and the TGI [24] was greater than 100 µM. It also gave a TGI [26] greater than 100 µM, a TGI [27] greater than 100 µM and a TGI [28] greater than 100 µM. The TGI [29] was greater than 100 µM, the TGI [30] was greater than 100 µM and the TGI [31] was greater than 100 µM. For the same molecule, the TGI [32] was greater than 100 µM, the TGI [33] was greater than 100 µM and the TGI [35] was greater than 100 µM. For the same molecule, the TGI [36] was greater than 100 µM, the TGI [37] was greater than 100 µM and the TGI [38] was greater than 100 µM. It also gave a TGI [40] greater than 100 µM, a TGI [41] greater than 100 µM and a TGI [42] greater than 100 µM. For the same molecule, the TGI [44] was greater than 100 µM, the TGI [58] was greater than 100 µM and the TGI [45] was greater than 100 µM. It also gave a TGI [46] greater than 100 µM, a TGI [48] greater than 100 µM and a TGI [49] greater than 100 µM. It also gave a TGI [50] greater than 100 µM, a TGI [51] greater than 100 µM and a TGI [52] greater than 100 µM.

For Cc1ccccc1-n1c2nc(=O)n(C)c(=O)c-2nc2ccccc21, the TGI [1] was 16.8 µM, the TGI [2] was 40.4 µM and the TGI [3] was 23.1 µM. It also gave a TGI [4] of 21.9 µM, a TGI [5] of 26.3 µM and a TGI [54] of 79.1 µM. The TGI [7] was 18.3 µM, the TGI [8] was 33.5 µM and the TGI [9] was 34.9 µM. The TGI [11] was 44.9 µM, the TGI [55] was 35.2 µM and the TGI [12] was 24.2 µM. It also gave a TGI [13] of 43.1 µM, a TGI [14] of 26.6 µM and a TGI [15] of 27.3 µM. The TGI [16] was 29.4 µM, the TGI [17] was 33.6 µM and the TGI [18] was 66.1 µM. For the same molecule, the TGI [19] was 27.5 µM, the TGI [56] was 31.3 µM and the TGI [20] was 24.6 µM. The TGI [57] was 39.7 µM, the TGI [21] was 3.84 µM and the TGI [22] was 28.3 µM. The TGI [23] was 36.3 µM, the TGI [24] was 21.4 µM and the TGI [25] was 39.2 µM. The TGI [27] was 37.9 µM, the TGI [28] was greater than 100 µM and the TGI [29] was 28.1 µM. The TGI [30] was greater than 100 µM, the TGI [31] was 24.3 µM and the TGI [32] was 39.9 µM. The TGI [33] was 26.7 µM, the TGI [34] was 9.78 µM and the TGI [35] was 21 µM. It also gave a TGI [36] of 32.1 µM, a TGI [37] of 32.5 µM and a TGI [38] of 25.4 µM. The TGI [39] was 43.6 µM, the TGI [40] was 29.2 µM and the TGI [41] was 58 µM. The TGI [42] was 35.4 µM, the TGI [43] was 28.8 µM and the TGI [44] was 13.9 µM. For the same molecule, the TGI [58] was 6.94 µM, the TGI [45] was 33.2 µM and the TGI [46] was 24.2 µM. For the same molecule, the TGI [47] was 35.8 µM, the TGI [59] was 48.9 µM and the TGI [48] was 42.4 µM. For the same molecule, the TGI [49] was 39.7 µM, the TGI [50] was 26.6 µM and the TGI [51] was 14.3 µM. It also gave a TGI [52] of 45 µM and a TGI [53] of 24.3 µM.
